Assay results taken from US20210315893A1 (Galapagos NV, priority 2017, published 2021).

Tests used:
[1] = system: HFL-1 cells; test: IL8 assay in the presence of Human Serum Albumin; settings: HFL1, read-out: HSA IL8 EC50
[2] = target: T1, S1PR2 (Homo sapiens, UniProt O95136); test: S1PR2 binding assay (competition with radioactively labeled S1P, SpA); settings: membranes from stable cell line over expressing S1PR2, SpA beads; read-out: S1P2 EC50 (nM), S1PR2 binding EC50
T1 construct: expressed in transfected cells
T1 sequence (O95136 whole entry): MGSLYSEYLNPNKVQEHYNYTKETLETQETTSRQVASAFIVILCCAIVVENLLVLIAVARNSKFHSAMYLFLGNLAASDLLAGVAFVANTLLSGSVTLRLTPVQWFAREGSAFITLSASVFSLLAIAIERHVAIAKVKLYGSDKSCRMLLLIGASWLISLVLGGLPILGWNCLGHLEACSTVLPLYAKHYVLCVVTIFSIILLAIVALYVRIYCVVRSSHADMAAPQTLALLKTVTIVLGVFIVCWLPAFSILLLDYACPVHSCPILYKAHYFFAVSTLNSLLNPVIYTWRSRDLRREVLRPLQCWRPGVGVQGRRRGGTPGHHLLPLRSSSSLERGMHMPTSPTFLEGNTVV
Procedure, shortened: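 Scintillation proximity read-out after 2 h room-temperature incubation of compound, [3H]S1P and S1PR2-overexpressing cell membranes on WGA-coated beads. Buffer: 20 mM Tris pH 7.5, 100 mM NaCl, 10 mM MgCl2, 1 mM Na3VO4, 0.4% fatty-acid-free BSA; plates counted immediately after centrifugation.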

[3] = system: HFL-1 cells; test: IL-8 production assay (S1P induced IL-8); assay type: cell-based; settings: Homo sapiens, HFL1; S1P (1 μM) induced IL-8 in HFL-1 cells, starvation medium without HSA; read-out: IL8 EC50
Procedure, shortened: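 HFL-1 fibroblasts in low-serum medium were pretreated 1 h with a 10-point 1/3 series of compound starting at 30 μM (0.3% DMSO).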

[4] = target: T2, human GPCR sphingosine 1-phosphate receptor 5 (Homo sapiens, UniProt Q9H228); test: S1PR5 selectivity Ca2+ flux assay (antagonist readout); assay type: cell-based; settings: CHO cells overexpressing human S1PR5 and Gq, agonist at EC80 (20 nM), read-out: S1P5 EC50 (nM), S1P5 antagonist EC50
T2 construct: host or cells: CHO
T2 sequence (Q9H228 whole entry): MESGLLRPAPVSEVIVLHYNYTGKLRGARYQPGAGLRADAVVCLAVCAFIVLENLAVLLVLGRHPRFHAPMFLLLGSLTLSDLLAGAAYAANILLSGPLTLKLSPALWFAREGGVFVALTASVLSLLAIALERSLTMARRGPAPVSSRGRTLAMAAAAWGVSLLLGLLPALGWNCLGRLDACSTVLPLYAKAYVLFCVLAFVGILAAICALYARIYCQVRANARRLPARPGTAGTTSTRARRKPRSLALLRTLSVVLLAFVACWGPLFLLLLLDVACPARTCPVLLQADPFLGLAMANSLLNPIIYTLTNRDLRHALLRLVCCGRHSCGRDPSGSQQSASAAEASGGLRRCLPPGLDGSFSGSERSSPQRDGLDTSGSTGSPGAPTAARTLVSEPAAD
Procedure, shortened: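 Antagonist readout: after 15 min compound preincubation at 37° C, human S1PR5/Gq CHO cells loaded with Fluo 8 dye received an EC80 challenge of S1PR5-specific agonist, and fluorescence was recorded for 3 min. Maximal-over-background ratios, normalized as % inhibition, gave IC50 by logistic fit.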

[5] = target: T3, human GPCR sphingosine 1-phosphate receptor 2 (Homo sapiens, UniProt O95136); test: S1PR2 antagonist Ca2+ flux assay; assay type: cell-based; settings: antagonist mode, CHO-S1PR2 cells, S1P at EC80, Ca2+ fluorescence; read-out: S1P2 EC50 (nM), S1P2 antagonist EC50
T3 construct: host or cells: CHO
T3 sequence (O95136 whole entry): as the sequence (O95136 whole entry) above
Procedure, shortened: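 Antagonist mode: 15 min after compound addition, S1P (EC80) stimulates Fluo8-loaded, 1 h-starved CHO-S1PR2 cells, Ca2+ read over 3 min; a prior 3-min read checks compound agonism. EC50 from peak/baseline fluorescence ratio, normalised versus vehicle and S1P EC50 (antagonist) or EC100 (agonist).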

[6] = target: T4, human GPCR sphingosine 1-phosphate receptor 1 (Homo sapiens, UniProt P21453); test: S1PR1 selectivity Ca2+ flux assay (antagonist readout); assay type: cell-based; settings: antagonist readout, CHO cells overexpressing human S1PR1 and Gq, S1P at EC80 (6 nM); read-out: S1P1 EC50 (nM), S1P1 antagonist EC50
T4 construct: host or cells: CHO
T4 sequence (P21453 whole entry): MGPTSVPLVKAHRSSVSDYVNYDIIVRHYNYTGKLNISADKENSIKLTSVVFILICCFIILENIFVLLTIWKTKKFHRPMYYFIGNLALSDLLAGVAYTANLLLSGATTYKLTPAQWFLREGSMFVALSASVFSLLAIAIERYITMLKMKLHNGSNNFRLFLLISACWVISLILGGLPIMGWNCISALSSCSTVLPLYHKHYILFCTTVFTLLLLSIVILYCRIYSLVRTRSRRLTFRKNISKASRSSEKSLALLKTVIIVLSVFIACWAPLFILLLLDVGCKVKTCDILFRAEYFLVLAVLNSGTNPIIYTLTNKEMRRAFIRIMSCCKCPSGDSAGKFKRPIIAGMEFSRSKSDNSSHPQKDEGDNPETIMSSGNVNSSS
Procedure, shortened: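 Antagonist mode: S1P challenge follows 15 min compound preincubation at 37 °C. Cells are CHO stably expressing human S1PR1, serum-starved 1 h (0.1% FAF BSA), loaded with Fluo 8. Peak-over-baseline fluorescence ratio is normalized to positive/negative controls; IC50 from logistic curve fit.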

Structure (SMILES)	EC50 [1]	EC50 [2]	EC50 [3]	EC50 [4]	EC50 [5]	EC50 [6]
NC(=O)c1ccc2c(=O)n(CC(=O)N3CCOCC3)nc(Cc3nc4cc(OCC(F)F)c(Cl)cc4[nH]3)c2c1 [compound 12, 4-[[6-chloro-5-(2,2-difluoro-ethoxy)-1H-benzimidazol-2-yl]methyl]-2-(2-morpholino-2-oxo-ethyl)-1-oxo-phthalazine-6-carboxamide]	1100 nM	582 nM	143 nM	19800 nM	276 nM	≥ 19800 nM
N#Cc1cc2nn(Cc3nn(CC(=O)N4CCOCC4)c(=O)c4ccccc34)cc2cc1OCC1CC1 [Compound 209]	382 nM	235 nM	123 nM	19800 nM	194 nM	≥ 19800 nM
CN(C)C1CCN(C(=O)Cn2nc(Cc3nc4cc(OCC(F)F)c(C#N)cc4[nH]3)c3ccccc3c2=O)C1 (stereo not drawn) [Compound 176, 6-(2,2-difluoroethoxy)-2-[[3-[2-[3-(dimethylamino)pyrrolidin-1-yl]-2-oxo-ethyl]-4-oxo-phthalazin-1-yl]methyl]-3H-benzimidazole-5-carbonitrile]	618 nM	386 nM	116 nM	19800 nM	489 nM	≥ 19800 nM
O=C(O)Cn1cc(Cc2nc3cc(Cl)c(OCC(F)F)cc3[nH]2)c2ccccc2c1=O [Compound 125, {4-[5-Chloro-6-(2,2-difluoro-ethoxy)-1H-benzoimidazol-2-ylmethyl]-1-oxo-1H-isoquinolin-2-yl}-acetic acid]	1680 nM	200 nM	66.1 nM	19800 nM	24.4 nM	≥ 19800 nM
O=C(Cn1nc(Cc2nc3cc(OCC(F)F)c(F)cc3[nH]2)c2ccccc2c1=O)N1CCOCC1 [Compound 156, 4-[[5-(2,2-difluoroethoxy)-6-fluoro-1H-benzimidazol-2-yl]methyl]-2-(2-morpholino-2-oxo-ethyl)phthalazin-1-one]	868 nM	647 nM	593 nM	19800 nM	59.8 nM	≥ 19800 nM
O=C(O)Cn1nc(Cc2nc3cc(Cl)c(OCC4CC4)c(F)c3[nH]2)c2ccccc2c1=O [Compound 116, 2-[4-[[5-chloro-6-(cyclopropylmethoxy)-7-fluoro-1H-benzimidazol-2-yl]methyl]-1-oxo-phthalazin-2-yl]acetic acid]	566 nM	183 nM	77.8 nM	19900 nM	25.2 nM	≥ 19800 nM
CN(C)C1CCN(C(=O)Cn2nc(Cc3nc4cc(C#N)c(OCC(F)F)cc4[nH]3)c3c(c2=O)CCCC3)C1 (stereo not drawn) [Compound 204, 6-(2,2-difluoroethoxy)-2-[[3-[2-[3-(dimethylamino)pyrrolidin-1-yl]-2-oxo-ethyl]-4-oxo-5,6,7,8-tetrahydrophthalazin-1-yl]methyl]-1H-benzimidazole-5-carbonitrile]	546 nM	296 nM	120 nM	19800 nM	117 nM	≥ 19800 nM
N#Cc1cc2[nH]c(Cc3nn(CC(=O)N4CCN(CC5CC5)CC4)c(=O)c4ccccc34)nc2cc1OCC(F)F [Compound 218, 2-[[3-[2-[4-(cyclopropylmethyl)piperazin-1-yl]-2-oxo-ethyl]-4-oxo-phthalazin-1-yl]methyl]-6-(2,2-difluoroethoxy)-3H-benzimidazole-5-carbonitrile]	15200 nM	526 nM	151 nM	19800 nM	1410 nM	≥ 19800 nM
COc1ccc2c(Cn3cc4cc(OCC5CC5)c(Cl)cc4n3)nn(C(C)C(=O)O)c(=O)c2c1 (stereo not drawn) [Compound 97, 2-[4-[[6-chloro-5-(cyclopropylmethoxy)indazol-2-yl]methyl]-7-methoxy-1-oxo-phthalazin-2-yl]propanoic acid]	5700 nM	432 nM	60.5 nM	19800 nM	53.4 nM	≥ 19800 nM

The next lines start with the values.

EC50 [1]	EC50 [2]	EC50 [3]	EC50 [4]	EC50 [5]	EC50 [6]	Structure (SMILES)
58.9 nM	56.8 nM	20.1 nM	19800 nM	34.9 nM	≥ 19800 nM	COCCOc1cc2[nH]c(Cc3nn(CC(=O)N4CCOCC4)c(=O)c4ccccc34)nc2cc1Cl [Compound 174, 4-[[5-chloro-6-(2-methoxyethoxy)-1H-benzimidazol-2-yl]methyl]-2-(2-morpholino-2-oxo-ethyl)phthalazin-1-one]
29.1 nM	13.3 nM	1.11 nM	6610 nM	5.29 nM	4580 nM	O=C(O)c1cn(Cc2nc3cc(OCC4CC4)c(Cl)cc3[nH]2)c2ccccc2c1=O [Compound 90, 1-[[6-chloro-5-(cyclopropylmethoxy)-1H-benzimidazol-2-yl]methyl]-4-oxo-quinoline-3-carboxylic acid]
33.4 nM	15.8 nM	29.1 nM	19800 nM	7.57 nM	≥ 19800 nM	CC(F)(F)COc1cc2[nH]c(Cc3nn(CC(=O)N4CCOCC4)c(=O)c4ccccc34)nc2cc1Cl [Compound 172, 4-[[5-chloro-6-(2,2-difluoropropoxy)-1H-benzimidazol-2-yl]methyl]-2-(2-morpholino-2-oxo-ethyl)phthalazin-1-one]
7.56 nM	52.9 nM	0.986 nM	19800 nM	3.49 nM	2150 nM	CC(C(=O)O)c1nn(Cc2nc3cc(OCC4CC4)c(C#N)cc3[nH]2)c2ccccc2c1=O (stereo not drawn) [Compound 107, 2-[1-[[6-cyano-5-(cyclopropylmethoxy)-1H-benzimidazol-2-yl]methyl]-4-oxo-cinnolin-3-yl]propanoic acid]
293 nM	306 nM	58.1 nM	19800 nM	14.6 nM	≥ 19800 nM	N#Cc1ccc2c(=O)n(CC(=O)O)nc(Cc3nc4cc(Cl)c(OCC(F)F)cc4[nH]3)c2c1 [compound 23, 2-[4-[[5-chloro-6-(2,2-difluoro-ethoxy)-1H-benzimidazol-2-yl]methyl]-6-cyano-1-oxo-phthalazin-2-yl]acetic acid]
378 nM	270 nM	34.2 nM	19800 nM	13 nM	≥ 19800 nM	CC1(C)CCN(C(=O)Cn2nc(Cc3nc4cc(OCC(F)F)c(C#N)cc4[nH]3)c3ccccc3c2=O)CC1 [Compound 234, 6-(2,2-difluoroethoxy)-2-[[3-[2-(4,4-dimethyl-1-piperidyl)-2-oxo-ethyl]-4-oxo-phthalazin-1-yl]methyl]-3H-benzimidazole-5-carbonitrile]
122 nM	619 nM	46.8 nM	19800 nM	42.3 nM	≥ 19800 nM	N#Cc1cc2[nH]c(Cn3cc(C(=O)O)c(=O)c4ccccc43)nc2cc1OCC(F)F [Compound 80, 1-[[6-cyano-5-(2,2-difluoroethoxy)-1H-benzimidazol-2-yl]methyl]-4-oxo-quinoline-3-carboxylic acid]
91.1 nM	1030 nM	108 nM	19800 nM	2080 nM	≥ 19800 nM	COCCOc1cc2nc(Cc3nn(C4CCNC4)c(=O)c4ccccc34)[nH]c2cc1C#N (stereo not drawn) [Compound 65, 6-(2-methoxyethoxy)-2-[(4-oxo-3-pyrrolidin-3-yl-phthalazin-1-yl)methyl]-3H-benzimidazole-5-carbonitrile]
61.7 nM	479 nM	13.6 nM	19800 nM	8.27 nM	3500 nM	CCOc1cc2nc(Cc3nn(CC(=O)O)c(=O)c4ccccc34)[nH]c2cc1C(F)(F)F [Compound 127, 2-[4-[[5-ethoxy-6-(trifluoromethyl)-1H-benzimidazol-2-yl]methyl]-1-oxo-phthalazin-2-yl]acetic acid]
